Among the data in ChEMBL document CHEMBL1155312, “In vivo evaluation of diaminodiphenyls: anticonvulsant agents with minimal acute neurotoxicity” (Bioorg Med Chem Lett, 2009) are inhibition in vivo and Activity values, retold here.

Series [1] relates to Mus musculus. Briefly: Anticonvulsant activity in CF1 albino mouse assessed as inhibition of maximal electric shock-induced seizure at 100 mg/kg, ip after 4 hrs. The format is functional. The conditions noted are these: route intraperitoneal.
Series [2] deals with Rattus norvegicus. Briefly: Anticonvulsant activity in Sprague-Dawley rat assessed as inhibition of maximal electric shock-induced seizure at 30 mg/kg, po after 0.5 hrs. The format is functional.
The test system of series [3] is Rattus norvegicus. Briefly: Anticonvulsant activity in Sprague-Dawley rat assessed as inhibition of maximal electric shock-induced seizure at 30 mg/kg, po after 0.25 hrs. Format: functional.
The subject of series [4] is Rattus norvegicus. Briefly: Anticonvulsant activity in Sprague-Dawley rat assessed as inhibition of maximal electric shock-induced seizure at 30 mg/kg, po after 2 hrs. Format: functional.
In series [5] the test system is Rattus norvegicus. Briefly: Anticonvulsant activity in Sprague-Dawley rat assessed as inhibition of maximal electric shock-induced seizure at 30 mg/kg, po after 4 hrs. The format is functional.
Series [6] concerns Mus musculus. As to the kind of experiment: Anticonvulsant activity in CF1 albino mouse assessed as inhibition of maximal electric shock-induced seizure at 30 mg/kg, ip after 0.5 hrs. Format: functional. The following applies: route intraperitoneal.
Series [7] has as its system Mus musculus. Briefly: Anticonvulsant activity in CF1 albino mouse assessed as inhibition of maximal electric shock-induced seizure at 100 mg/kg, ip after 0.5 hrs. Format: functional. The following applies: route intraperitoneal.
The test system of series [8] is Mus musculus. As to the kind of experiment: Anticonvulsant activity in CF1 albino mouse assessed as inhibition of maximal electric shock-induced seizure at 30 mg/kg, ip after 4 hrs. The format is functional. The following applies: route intraperitoneal.
Series [9] relates to Mus musculus. Briefly: Anticonvulsant activity in CF1 albino mouse assessed as inhibition of maximal electric shock-induced seizure at 300 mg/kg, ip after 4 hrs. The format is functional. The following applies: route intraperitoneal.
The subject of series [10] is Rattus norvegicus. Briefly: Anticonvulsant activity in Sprague-Dawley rat assessed as inhibition of maximal electric shock-induced seizure at 30 mg/kg, po after 1 hrs. The format is functional.
Series [11] deals with Mus musculus. As to the kind of experiment: Anticonvulsant activity in CF1 albino mouse assessed as inhibition of maximal electric shock-induced seizure at 300 mg/kg, ip after 0.5 hrs. Format: functional. The conditions noted are these: route intraperitoneal.
The subject of series [12] is Rattus norvegicus. As to the kind of experiment: Neurotoxicity in Sprague-Dawley rat at 500 mg/kg, po by positional sense and gait and stance test. The format is toxicity, organism-based. Further details: dose 500 mg/kg, route oral. The conditions noted are these: in vivo.
The subject of series [13] is Mus musculus. Briefly: Anticonvulsant activity in CF1 albino mouse assessed as inhibition of minimal clonic seizure at 30 mg/kg, ip after 0.25 hrs. Format: functional. The conditions noted are these: route intraperitoneal.
Series [14] relates to Mus musculus. Briefly: Anticonvulsant activity in CF1 albino mouse assessed as inhibition of minimal clonic seizure at 100 mg/kg, ip after 0.5 hrs. The conditions noted are these: route intraperitoneal. Format: functional.
Series [15] has as its system Rattus norvegicus. As to the kind of experiment: Neurotoxicity in Sprague-Dawley rat at 500 mg/kg, po by positional sense and gait and stance test after 1 hrs. The conditions noted are these: in vivo. Further details: dose 500 mg/kg, route oral. The format is toxicity, organism-based.
The subject of series [16] is Mus musculus. As to the kind of experiment: Anticonvulsant activity in CF1 albino mouse assessed as inhibition of minimal clonic seizure at 30 mg/kg, ip after 1 hrs. The conditions noted are these: route intraperitoneal. The format is functional.
Series [17] concerns Mus musculus. Briefly: Anticonvulsant activity in CF1 albino mouse assessed as inhibition of minimal clonic seizure at 100 mg/kg, ip after 4 hrs. The format is functional. The conditions noted are these: route intraperitoneal.
For series [18], the system named is Mus musculus. Briefly: Anticonvulsant activity in CF1 albino mouse assessed as inhibition of minimal clonic seizure at 100 mg/kg, ip after 0.25 hrs. Format: functional. The following applies: route intraperitoneal.
Series [19] relates to Mus musculus. As to the kind of experiment: Anticonvulsant activity in CF1 albino mouse assessed as inhibition of minimal clonic seizure at 100 mg/kg, ip after 2 hrs. The format is functional. The following applies: route intraperitoneal.
The subject of series [20] is Mus musculus. As to the kind of experiment: Anticonvulsant activity in CF1 albino mouse assessed as inhibition of minimal clonic seizure at 100 mg/kg, ip after 1 hrs. The format is functional. The following applies: route intraperitoneal.
For series [21], the system named is Mus musculus. Briefly: Anticonvulsant activity in CF1 albino mouse assessed as inhibition of minimal clonic seizure at 30 mg/kg, ip after 0.5 hrs. Format: functional. The conditions noted are these: route intraperitoneal.
In series [22] the test system is Mus musculus. As to the kind of experiment: Neurotoxicity in CF1 albino mouse at 100 mg/kg, ip by rotarod test. The format is toxicity, organism-based. Details: dose 100 mg/kg, route intraperitoneal. The following applies: in vivo.

For the compound `Nc1ccc(NC(=O)c2ccc(N)cc2)cc1`, the inhibition in vivo at 100 mg/kg in the series with Mus musculus [1] was 0%; with Mus musculus [7], 66%. Besides, the inhibition in vivo at 30 mg/kg was determined as 75% with Rattus norvegicus [2]; 50% in the series with Rattus norvegicus [3]; 25% in the series with Rattus norvegicus [4]; 50% in the series on Rattus norvegicus [5]; 0% in the series on Mus musculus [6]; 0% with Mus musculus [8]. Also, the inhibition in vivo at 30 mg/kg with Rattus norvegicus [10] came out at 50%. Further, the inhibition in vivo at 300 mg/kg in the series on Mus musculus [9] and in the series on Mus musculus [11] was 100% each time. Further, in the series with Rattus norvegicus [12], the Activity entry is “Non-toxic”.

In the case of `Nc1ccc(C(=O)c2ccc(N)cc2)cc1`, the inhibition in vivo at 100 mg/kg in the series on Mus musculus [1] turned out to be 100%; in the series with Mus musculus [7], 100%; with Mus musculus [14], 100%; with Mus musculus [17] it was 0%; in the series with Mus musculus [18] it was 100%; with Mus musculus [19] it was 0%. Besides, the inhibition in vivo at 100 mg/kg in the series on Mus musculus [20] worked out at 100%. For the same compound, the inhibition in vivo at 30 mg/kg with Rattus norvegicus [2] stood at 100%; in the series on Mus musculus [13] it was 0%; with Rattus norvegicus [3] it was 50%; with Rattus norvegicus [4], 100%; with Rattus norvegicus [5], 75%; with Mus musculus [6], 0%. For the same compound, the inhibition in vivo at 30 mg/kg in the series with Mus musculus [8] came out at 0%; in the series on Mus musculus [16], 0%; in the series with Rattus norvegicus [10], 75%; with Mus musculus [21], 0%. In addition, the Activity entry with Rattus norvegicus [15] is recorded as “Non-toxic”. Moreover, the inhibition in vivo at 300 mg/kg in the series on Mus musculus [9] and with Mus musculus [11] was 100% each time.

On to `Nc1ccc(Cc2ccc(N)cc2)cc1` [4,4'-METHYLENEDIANILINE], for which the inhibition in vivo at 100 mg/kg with Mus musculus [1] was 0%; with Mus musculus [7], 100%. In addition, the inhibition in vivo at 30 mg/kg was found to be 75% in the series with Rattus norvegicus [2]; 100% with Rattus norvegicus [3]; 100% with Rattus norvegicus [4]; 50% with Rattus norvegicus [5]; 0% in the series on Mus musculus [6]; 0% in the series on Mus musculus [8]. Further, the inhibition in vivo at 30 mg/kg in the series with Rattus norvegicus [10] is 100%. For the same compound, the inhibition in vivo at 300 mg/kg in the series with Mus musculus [9] and in the series on Mus musculus [11] was 100% throughout. Moreover, in the series on Mus musculus [22], the Activity result is reported as “Non-toxic”.
